US7250441B2, “Carbazole and cyclopentaindole derivatives to treat infection with Hepatitis C virus” (priority 2004, dated 2007)

Target: T1, HCV RdRp NS5B d21BK (NS5B from the BK strain, genotype 1b) (Hepatitis C virus genotype 1b, UniProt P26663)
T1 construct: NS5B from the BK strain (genotype 1b) is expressed in E coli as a protein in which the 21 C-terminal amino acids are replaced; made in house; host or cells: E. coli
Test: Hepatitis C polymerase inhibition assay, radioactive nucleotide incorporation with filter capture
Type: biochemical
Source text: The ability of the compounds of formula (I) to inhibit Hepatitis C Polymerase was established by the following experimental procedure.
NS5B from the BK strain (genotype 1b) is expressed in E coli as a protein in which the 21 C-terminal amino acids are replaced with a short linker and a hexahistidine tag ([…]). The purified protein is mixed with radioactive nucleotides and allowed to replicate a heteropolymeric RNA substrate, primed by an endogenous short hairpin, resulting in an approximately 760 nt product. The radioactive product is captured on a filter and quantitated after removal of the unincorporated nucleotides.
(1) Compounds 10 μl at 10 μg/ml in 15% dimethylsulfoxide (DMSO)
When starting from 100 μg/ml compound stock in 1% DMSO, 5 μl 30% DMSO is dispensed per well. Next, 5 μl compound (100 μg/ml) is dispensed per well.
When starting from 50 μg/ml compound stock in 15% DMSO, 10 μl compound is added per well.
20 μl enzyme mix is added into each well of the assay plate. The compound and enzyme are incubated at room temperature for 15 minutes.
(3) Template mix (prepared in advance)
A tube of RNA (5 μg/tube stored in 75% ethanol and 0.3 M sodium acetate) is microcentrifuged for 20 minutes at 4° C. (one tube supplies 1-1.5 plates). Ethanol is removed from the tube by gently inverting the tube. The RNA is vacuum dried and re-suspended in 1 ml of DEPC water in a tightly capped tube. To dissolve RNA, the RNA solution is incubated on ice for ˜60 minutes and gently vortexed. It is spun briefly to ensure all RNA solution at the bottom of the tube before opening cap. The RNA solution is then gently transferred into a 5 ml or larger tube. Another 3 ml of DEPC water is added to obtain a total of 4 ml of volume.
The following volumes of reagents are added:
20 μl template mix per reaction is added (i.e. 20 ng of pOF per reaction or ˜3 nM)
(4) The reaction is incubated at room temperature (22-25° C.) for 2 hours.
(5) The reaction is quenched by adding 50 μl of 170 mM EDTA.
Final concentration of EDTA is 85 mM.
(6) The filters of Millipore multiscreen assay plate is pre-wet by adding 200 μl of 0.5 M sodium phosphate buffer, pH 7.0 into each well. This stands at room temperature for 2-3 minutes.
(7) The multiscreen filter plate is placed onto a Millipore Manifold under vacuum to allow buffer to flow through. After the vacuum is turned off, 80 μl of the reaction product is transferred into each well of the filter plate. This stands for 2-3 minutes prior to turning on the vacuum again to filter the reaction product.
(8) The vacuum is then removed. 200 μl of 0.5 M sodium phosphate buffer is added, pH 7.0, into each well. The vacuum is then turned on.
Step (8) is repeated three more times.
(9) Next the polypropylene bottom is removed, and the filter is spot dried with a paper towel. The filter plate is air-dried on a bench for 1 hour before adding 40 μl Super Mix scintillant. The top of the plate is sealed with a tape and the plate is placed into a Packard carrier or micro-beta carrier.
(10) The plate is counted using a Packard Topcount or micro-beta counter. Count (for example using Program 10) for ^33P in Top count or ^33P program in micro-beta.
The percent inhibition is calculated after background subtraction as a percent reduction of activity relative to the positive control (average value of the plate excluding the negative controls). For the primary screen hits were chosen as showing >75% inhibition.
See, Ferrari et al. 1999. J. Virology 73:1649-1654: “Characterization of soluble Hepatitis C virus RNA-dependent RNA polymerase expressed in E. coli and Takamizawa et al 1991” and J. Virology 65:1105-1113: “Structure and characterization of Hepatitis C virus genome isolated from human carriers,” both reference are hereby incorporated by reference.

T1 sequence (P26663 2420-2989): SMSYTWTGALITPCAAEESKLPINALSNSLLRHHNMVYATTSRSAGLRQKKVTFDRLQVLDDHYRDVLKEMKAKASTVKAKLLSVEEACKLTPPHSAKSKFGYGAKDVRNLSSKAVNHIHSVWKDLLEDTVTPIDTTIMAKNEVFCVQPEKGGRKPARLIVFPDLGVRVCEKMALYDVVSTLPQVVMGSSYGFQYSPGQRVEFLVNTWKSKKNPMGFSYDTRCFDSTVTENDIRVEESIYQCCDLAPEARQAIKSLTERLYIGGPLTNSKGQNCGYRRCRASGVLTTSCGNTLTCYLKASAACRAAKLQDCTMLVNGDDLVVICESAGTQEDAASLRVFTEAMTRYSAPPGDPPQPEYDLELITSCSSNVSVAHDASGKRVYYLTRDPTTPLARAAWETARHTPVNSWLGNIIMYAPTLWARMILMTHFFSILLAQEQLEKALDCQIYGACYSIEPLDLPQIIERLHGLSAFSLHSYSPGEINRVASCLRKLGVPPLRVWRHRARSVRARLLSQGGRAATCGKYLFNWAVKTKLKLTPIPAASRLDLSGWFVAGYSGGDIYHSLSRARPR

SMILES	IC50 [µM]
CCCC1(CC(=O)O)CCCc2c1[nH]c1c(C(N)=O)ccc(C#N)c21 (stereo not shown) [Example 33, (8-Carbamoyl-5-cyano-1-propyl-2,3,4,9-tetrahydro-1H-carbazol-1-yl)-acetic acid]	5.9
C=CCC1(CC(=O)O)CCCc2c1[nH]c1c(C#N)ccc(C#N)c21 (stereo not shown) [Example 34, (1-Allyl-5,8-dicyano-2,3,4,9-tetrahydro-1H-carbazol-1-yl)-acetic acid]	3.4
CCCC1(CC(=O)O)CCCc2c1[nH]c1c(C#N)ccc(C#N)c21 (stereo not shown) [Example 35, (5,8-Dicyano-1-propyl-2,3,4,9-tetrahydro-1H-carbazol-1-yl)-acetic acid]	3.4
CCCC1(CC(=O)O)CCCc2c1[nH]c1cccc(C#N)c21 (stereo not shown) [Example 36, (5-Cyano-1-propyl-2,3,4,9-tetrahydro-1H-carbazol-1-yl)-acetic acid]	9.5
